Patent US20070190188A1, “Controlling Toxicity of Aminoquinoline Compounds” (The University of Mississippi, priority 2005, published 2007)
Values belong to the compound of their own block, whether it stands above or below them.

Key:
[1] = test system: pooled human liver microsomes; experiment: In vitro formation of methemoglobinemic metabolites with pooled human liver microsomes and human erythrocytes; assay type: cell-based; settings: for formation of methemoglobenemic metabolites, Control: macrolide alone, no 8-aminoquinoline
Method: (§1) In one aspect of the present invention, an in vitro assay is developed for evaluation of biotransformation reactions leading to generation of methemoglobinemic metabolites of 8-aminoquinolines. This method uses simultaneous incubation of a test compound with the hepatic microsomes or Baculosomes® (microsomes prepared from insect cells infected with recombinant baculovirus containing a cDNA insert for a specific human P450 isozyme and NADPH-P450 reductase) and human erythrocytes followed by determination of methemoglobin formation. This allows the unstable metabolites generated in situ to react with the human erythrocytes.

Mouse Liver Microsomes = experiment: In vitro formation of methemoglobinemic metabolites with mouse liver microsomes and human erythrocytes; assay type: cell-based; settings: for formation of methemoglobenemic metabolites, Control / formation of methemoglobenemic metabolites, Azithromycin / formation of methemoglobenemic metabolites, Erythromycin / formation of methemoglobenemic metabolites, Microsomes: Mouse Liver Microsomes; for formation of methemoglobenemic metabolites, Control: macrolide alone, no 8-aminoquinoline; for formation of methemoglobenemic metabolites, Azithromycin: 8-aminoquinoline with Azithromycin; for formation of methemoglobenemic metabolites, Erythromycin: 8-aminoquinoline with Erythromycin; for formation of methemoglobenemic metabolites, Microsomes: no macrolide; for % methemoglobin formation, Mouse Liver Microsomes: drug 100 μM, microsomes equivalent to 25 pmoles cytochrome P450, Mean ± S.D. of four
Method: as §1

CPY 2B6 = molecular target: T1, CPY 2B6 (Homo sapiens, UniProt P20813); experiment: Methemoglobinemic metabolite formation with Baculosomes, CYP 2B6; assay type: cell-based; settings: mean ± S.D. of four
T1 construct: purchased; host or cells: insect cells infected with recombinant baculovirus
T1 sequence (P20813 1-491): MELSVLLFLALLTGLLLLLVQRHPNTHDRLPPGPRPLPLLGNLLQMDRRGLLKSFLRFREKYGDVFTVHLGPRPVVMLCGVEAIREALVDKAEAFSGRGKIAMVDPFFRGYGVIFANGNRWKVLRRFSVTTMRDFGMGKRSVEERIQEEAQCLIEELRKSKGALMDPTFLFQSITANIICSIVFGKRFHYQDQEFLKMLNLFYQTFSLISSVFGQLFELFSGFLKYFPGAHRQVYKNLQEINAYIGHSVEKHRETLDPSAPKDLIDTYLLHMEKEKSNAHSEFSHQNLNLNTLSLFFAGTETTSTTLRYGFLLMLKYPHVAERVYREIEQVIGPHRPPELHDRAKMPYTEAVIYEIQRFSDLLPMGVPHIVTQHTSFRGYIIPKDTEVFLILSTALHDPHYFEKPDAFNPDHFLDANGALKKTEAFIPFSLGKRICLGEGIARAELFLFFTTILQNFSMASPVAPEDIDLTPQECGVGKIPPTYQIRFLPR
Method: (§2) This method uses simultaneous incubation of a test compound with the hepatic microsomes or Baculosomes® (microsomes prepared from insect cells infected with recombinant baculovirus containing a cDNA insert for a specific human P450 isozyme and NADPH-P450 reductase) and human erythrocytes followed by determination of methemoglobin formation. This allows the unstable metabolites generated in situ to react with the human erythrocytes.

CYP 2C9 = molecular target: T2, CYP 2C9 (Homo sapiens, UniProt P11712); experiment: Methemoglobinemic metabolite formation with Baculosomes, CYP 2C9; assay type: cell-based; settings: mean ± S.D. of four
T2 construct: purchased; host or cells: insect cells infected with recombinant baculovirus
T2 sequence (P11712 whole entry): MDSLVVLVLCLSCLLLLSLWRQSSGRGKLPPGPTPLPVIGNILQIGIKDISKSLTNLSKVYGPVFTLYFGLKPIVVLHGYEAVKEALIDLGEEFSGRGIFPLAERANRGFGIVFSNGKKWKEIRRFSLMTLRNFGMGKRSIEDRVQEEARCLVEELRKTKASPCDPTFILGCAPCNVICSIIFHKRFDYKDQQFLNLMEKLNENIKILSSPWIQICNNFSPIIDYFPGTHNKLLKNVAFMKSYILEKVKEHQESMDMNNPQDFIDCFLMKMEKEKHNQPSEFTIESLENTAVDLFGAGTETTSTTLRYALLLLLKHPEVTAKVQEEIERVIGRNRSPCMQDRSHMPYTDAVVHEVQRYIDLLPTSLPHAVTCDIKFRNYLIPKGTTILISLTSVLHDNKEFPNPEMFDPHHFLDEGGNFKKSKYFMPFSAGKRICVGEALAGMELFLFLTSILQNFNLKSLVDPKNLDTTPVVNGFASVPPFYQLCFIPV
Method: as §2

CYP 1A2 = molecular target: T3, CYP 1A2 (Homo sapiens, UniProt P05177); experiment: Methemoglobinemic metabolite formation with Baculosomes, CYP 1A2; assay type: cell-based; settings: mean ± S.D. of four
T3 construct: purchased; host or cells: insect cells infected with recombinant baculovirus
T3 sequence (P05177 2-516 limits assumed): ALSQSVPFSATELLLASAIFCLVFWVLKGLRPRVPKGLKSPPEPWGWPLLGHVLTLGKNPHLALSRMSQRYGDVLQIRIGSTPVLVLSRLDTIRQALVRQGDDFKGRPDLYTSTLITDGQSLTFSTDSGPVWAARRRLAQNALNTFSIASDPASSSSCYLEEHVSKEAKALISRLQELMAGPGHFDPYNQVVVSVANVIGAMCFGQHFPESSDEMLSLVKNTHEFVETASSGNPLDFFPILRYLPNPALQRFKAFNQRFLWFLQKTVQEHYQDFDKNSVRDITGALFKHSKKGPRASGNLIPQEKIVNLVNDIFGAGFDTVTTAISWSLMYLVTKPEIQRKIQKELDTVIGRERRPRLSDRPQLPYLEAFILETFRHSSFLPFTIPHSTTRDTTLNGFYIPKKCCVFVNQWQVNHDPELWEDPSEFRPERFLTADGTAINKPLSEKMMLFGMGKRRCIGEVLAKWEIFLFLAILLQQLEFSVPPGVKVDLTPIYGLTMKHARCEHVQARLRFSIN
Method: as §2

CYP 2C19 = molecular target: T4, CYP 2C19 (Homo sapiens, UniProt P33261); experiment: Methemoglobinemic metabolite formation with Baculosomes, CYP 2C19; assay type: cell-based; settings: mean ± S.D. of four
T4 construct: purchased; host or cells: insect cells infected with recombinant baculovirus
T4 sequence (P33261 whole entry): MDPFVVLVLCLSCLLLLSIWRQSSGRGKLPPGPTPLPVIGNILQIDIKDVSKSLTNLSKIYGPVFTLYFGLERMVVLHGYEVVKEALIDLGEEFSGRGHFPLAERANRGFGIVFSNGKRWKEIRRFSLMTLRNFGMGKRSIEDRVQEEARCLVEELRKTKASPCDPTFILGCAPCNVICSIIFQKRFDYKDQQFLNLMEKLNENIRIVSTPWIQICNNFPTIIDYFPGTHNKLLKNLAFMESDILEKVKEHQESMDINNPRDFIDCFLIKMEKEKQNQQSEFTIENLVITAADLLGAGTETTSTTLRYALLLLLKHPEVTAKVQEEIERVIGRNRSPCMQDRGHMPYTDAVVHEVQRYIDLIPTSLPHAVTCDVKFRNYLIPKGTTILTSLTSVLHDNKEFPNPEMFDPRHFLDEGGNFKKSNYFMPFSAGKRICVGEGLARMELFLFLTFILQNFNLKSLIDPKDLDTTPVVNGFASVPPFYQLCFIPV
Method: as §2

CYP 2E1 = molecular target: T5, CYP 2E1 (Homo sapiens, UniProt P05181); experiment: Methemoglobinemic metabolite formation with Baculosomes, CYP 2E1; assay type: cell-based; settings: mean ± S.D. of four
T5 construct: purchased; host or cells: insect cells infected with recombinant baculovirus
T5 sequence (P05181 whole entry): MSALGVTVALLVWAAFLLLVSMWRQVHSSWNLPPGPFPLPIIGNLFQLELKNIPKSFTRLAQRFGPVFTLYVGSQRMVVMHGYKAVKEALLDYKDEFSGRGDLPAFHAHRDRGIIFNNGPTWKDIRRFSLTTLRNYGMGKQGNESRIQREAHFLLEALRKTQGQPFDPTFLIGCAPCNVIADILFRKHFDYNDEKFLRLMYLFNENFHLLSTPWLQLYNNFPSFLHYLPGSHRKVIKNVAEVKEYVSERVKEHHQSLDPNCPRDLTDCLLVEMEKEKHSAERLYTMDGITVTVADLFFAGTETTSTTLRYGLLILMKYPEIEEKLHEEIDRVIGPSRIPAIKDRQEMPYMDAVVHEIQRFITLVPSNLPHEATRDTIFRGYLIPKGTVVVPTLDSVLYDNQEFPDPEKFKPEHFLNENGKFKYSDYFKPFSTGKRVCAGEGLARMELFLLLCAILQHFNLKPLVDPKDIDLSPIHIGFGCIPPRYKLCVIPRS
Method: as §2

CYP 2A6 = molecular target: T6, CYP 2A6 (Homo sapiens, UniProt P11509); experiment: Methemoglobinemic metabolite formation with Baculosomes, CYP 2A6; assay type: cell-based; settings: mean ± S.D. of four
T6 construct: purchased; host or cells: insect cells infected with recombinant baculovirus
T6 sequence (P11509 1-494): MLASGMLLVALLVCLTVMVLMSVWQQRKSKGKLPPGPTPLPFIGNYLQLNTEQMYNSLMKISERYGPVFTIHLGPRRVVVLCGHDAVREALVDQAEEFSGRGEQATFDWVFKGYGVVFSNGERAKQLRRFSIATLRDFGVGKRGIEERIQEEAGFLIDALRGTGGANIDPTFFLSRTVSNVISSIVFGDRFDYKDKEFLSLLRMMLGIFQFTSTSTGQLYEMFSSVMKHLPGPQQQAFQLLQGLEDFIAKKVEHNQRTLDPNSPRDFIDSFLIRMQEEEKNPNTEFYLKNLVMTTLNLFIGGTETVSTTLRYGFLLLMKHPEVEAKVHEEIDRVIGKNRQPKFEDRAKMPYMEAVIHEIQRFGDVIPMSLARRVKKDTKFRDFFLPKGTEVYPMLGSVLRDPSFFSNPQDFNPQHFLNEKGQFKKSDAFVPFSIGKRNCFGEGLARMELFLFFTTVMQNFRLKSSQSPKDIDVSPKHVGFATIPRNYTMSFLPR
Method: as §2

human erythrocytes = experiment: In vitro methemoglobin formation, human erythrocytes, control without microsomes; assay type: cell-based; settings: for % methemoglobin formed, Supersomes None: no Baculosomes, mean ± S.D. of four; for % methemoglobin formation, Control: no microsomes, drug 100 μM, Mean ± S.D. of four observations
Method: as §1

CYP 2D6 = molecular target: T7, CYP 2D6 (Homo sapiens, UniProt P10635); experiment: Methemoglobinemic metabolite formation with Baculosomes, CYP 2D6; assay type: cell-based; settings: mean ± S.D. of four
T7 construct: purchased; host or cells: insect cells infected with recombinant baculovirus
T7 sequence (P10635 whole entry): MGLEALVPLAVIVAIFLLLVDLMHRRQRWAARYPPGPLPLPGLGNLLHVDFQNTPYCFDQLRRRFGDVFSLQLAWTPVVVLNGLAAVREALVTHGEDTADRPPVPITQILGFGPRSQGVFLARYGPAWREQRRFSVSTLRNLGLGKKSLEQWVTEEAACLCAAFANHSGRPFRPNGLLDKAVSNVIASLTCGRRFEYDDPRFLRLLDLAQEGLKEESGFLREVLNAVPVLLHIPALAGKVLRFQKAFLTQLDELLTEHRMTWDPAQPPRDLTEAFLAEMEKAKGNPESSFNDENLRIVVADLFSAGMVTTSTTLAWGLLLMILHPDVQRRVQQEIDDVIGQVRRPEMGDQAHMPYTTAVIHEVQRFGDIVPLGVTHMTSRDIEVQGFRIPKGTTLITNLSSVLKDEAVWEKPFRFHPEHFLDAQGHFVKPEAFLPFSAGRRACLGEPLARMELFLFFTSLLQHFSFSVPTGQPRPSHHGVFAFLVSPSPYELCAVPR
Method: as §2

CYP 2C8 = molecular target: T8, CYP 2C8 (Homo sapiens, UniProt P10632); experiment: Methemoglobinemic metabolite formation with Baculosomes, CYP 2C8; assay type: cell-based; settings: mean ± S.D. of four
T8 construct: purchased; host or cells: insect cells infected with recombinant baculovirus
T8 sequence (P10632 1-490): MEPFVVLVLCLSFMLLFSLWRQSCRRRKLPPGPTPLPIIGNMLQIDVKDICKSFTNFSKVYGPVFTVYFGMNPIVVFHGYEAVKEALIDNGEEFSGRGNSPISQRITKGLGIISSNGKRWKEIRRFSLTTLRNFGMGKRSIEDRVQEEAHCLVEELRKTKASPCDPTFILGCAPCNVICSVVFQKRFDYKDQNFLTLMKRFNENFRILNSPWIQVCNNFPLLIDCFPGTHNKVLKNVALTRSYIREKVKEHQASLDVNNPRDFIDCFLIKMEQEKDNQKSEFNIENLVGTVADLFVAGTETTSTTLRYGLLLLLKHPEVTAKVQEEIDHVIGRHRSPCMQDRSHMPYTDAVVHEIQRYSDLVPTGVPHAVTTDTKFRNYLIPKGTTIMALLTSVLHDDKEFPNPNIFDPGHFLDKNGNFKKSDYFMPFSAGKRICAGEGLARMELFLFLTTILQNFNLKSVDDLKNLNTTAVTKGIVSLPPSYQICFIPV
Method: as §1

CYP 3A4 = molecular target: T9, CYP 3A4 (Homo sapiens, UniProt P08684); experiment: Methemoglobinemic metabolite formation with Baculosomes, CYP 3A4; assay type: cell-based
T9 construct: purchased; host or cells: insect cells infected with recombinant baculovirus
T9 sequence (P08684 2-503 limits assumed): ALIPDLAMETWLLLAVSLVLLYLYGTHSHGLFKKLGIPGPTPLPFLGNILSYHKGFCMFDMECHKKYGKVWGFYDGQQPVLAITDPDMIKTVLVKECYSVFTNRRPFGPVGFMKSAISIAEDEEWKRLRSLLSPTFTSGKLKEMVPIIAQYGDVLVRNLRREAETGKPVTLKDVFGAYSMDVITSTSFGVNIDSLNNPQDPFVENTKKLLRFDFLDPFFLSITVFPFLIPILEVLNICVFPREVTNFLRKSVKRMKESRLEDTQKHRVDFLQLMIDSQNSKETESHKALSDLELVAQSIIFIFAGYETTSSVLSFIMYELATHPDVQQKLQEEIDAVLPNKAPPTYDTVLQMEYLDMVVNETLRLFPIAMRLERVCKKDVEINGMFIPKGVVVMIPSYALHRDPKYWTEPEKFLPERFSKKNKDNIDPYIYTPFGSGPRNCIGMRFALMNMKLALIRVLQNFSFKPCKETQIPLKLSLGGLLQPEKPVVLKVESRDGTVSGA
Method: as §1

Plasmodium berghei = experiment: In vivo antimalarial evaluation in Plasmodium berghei-mouse malaria model; settings: TAO i.p. 50 mg/kg × 3 once daily alone; for (%) Parasitemia: mean in brackets
Text: One concern with this method of controlling 8-aminoquinoline toxicity is that the inhibition metabolism of the drug may impair its antiparasitic efficacy. […] Thus treatment of the individuals with NPC1161B along with an inhibitor of CYP3A4 should not compromise the therapeutic efficiency of NPC1161B.

Compound: COc1cc(NC(C)CCCN)c2ncccc2c1 (stereo not shown) [Primaquine, primaquine, reference compound]
- % methemoglobin formed, Supersomes None (human erythrocytes): 1.465 ± 0.183%
- % methemoglobin formation, Control (human erythrocytes): 1.465 ± 0.414%
- formation of methemoglobenemic metabolites, Azithromycin (Mouse Liver Microsomes): 11.800 ± 2.862
- formation of methemoglobenemic metabolites, Erythromycin (Mouse Liver Microsomes): 23.770 ± 5.826
- formation of methemoglobenemic metabolites, Microsomes (Mouse Liver Microsomes): 36.660 ± 2.612
- % methemoglobin formation, Mouse Liver Microsomes (Mouse Liver Microsomes): 36.660 ± 2.612%

Compound: CO[C@H]1C[C@H](O[C@H]2[C@H](C)[C@@H](O[C@@H]3O[C@H](C)C[C@H](N(C)C)[C@H]3OC(C)=O)[C@@H](C)C[C@@]3(CO3)C(=O)[C@H](C)[C@@H](OC(C)=O)[C@@H](C)[C@@H](C)OC(=O)[C@@H]2C)O[C@@H](C)[C@@H]1OC(C)=O [Troleandomycin, troleandomycin, reference compound]
- MST (Plasmodium berghei): 15 days
- (%) Parasitemia (Plasmodium berghei; day 7 p.i.): 13.3/18.3/25.5/16.5/13.1 (17.3) %
- (%) Parasitemia (Plasmodium berghei; day 10 p.i.): 22.7/34.5/32.0/32.1/24.3 (29.1) %
- (%) Parasitemia (Plasmodium berghei; day 14 p.i.): 31.5/41.5/28.5/49.3/49.3 (40.0) %
- deaths (Plasmodium berghei; number of deaths/day): 5/15

The next lines start with results.

- formation of methemoglobenemic metabolites, Control ([1]; pooled human Liver Microsomes): 0
- formation of methemoglobenemic metabolites, Control (Mouse Liver Microsomes): 6.598 ± 0.505
Compound: CC[C@H]1OC(=O)[C@H](C)[C@@H](O[C@H]2C[C@@](C)(OC)[C@@H](O)[C@H](C)O2)[C@H](C)[C@@H](O[C@@H]2O[C@H](C)C[C@H](N(C)C)[C@H]2O)[C@](C)(O)C[C@@H](C)CN(C)[C@H](C)[C@@H](O)[C@]1(C)O [Azithromycin, reference compound]

- formation of methemoglobenemic metabolites, Control ([1]; pooled human Liver Microsomes): 0
- formation of methemoglobenemic metabolites, Control (Mouse Liver Microsomes): 6.230 ± 1.009
Compound: CC[C@H]1OC(=O)[C@H](C)[C@@H](O[C@H]2C[C@@](C)(OC)[C@@H](O)[C@H](C)O2)[C@H](C)[C@@H](O[C@@H]2O[C@H](C)C[C@H](N(C)C)[C@H]2O)[C@](C)(O)C[C@@H](C)C(=O)[C@H](C)[C@@H](O)[C@]1(C)O [Erythromycin, erythromycin, reference compound]

- % methemoglobin formed, CPY 2B6 (CPY 2B6): 5.465 ± 0.625%
- % methemoglobin formed, CYP 2C9 (CYP 2C9): 0.070 ± 0.130%
- % methemoglobin formation, Pooled Human liver Microsomes ([1]; drug 100 μM, microsomes equivalent to 25 pmoles cytochrome P450, Mean ± S.D. of four): 12.510 ± 1.890%
- formation of methemoglobenemic metabolites, Azithromycin ([1]; pooled human Liver Microsomes, 8-aminoquinoline with Azithromycin): 10.595 ± 0.842
- formation of methemoglobenemic metabolites, Erythromycin ([1]; pooled human Liver Microsomes, 8-aminoquinoline with Erythromycin): 6.720 ± 1.011
- formation of methemoglobenemic metabolites, Microsomes ([1]; pooled human Liver Microsomes, no macrolide): 12.860 ± 1.994
- % methemoglobin formed, CYP 1A2 (CYP 1A2): 2.060 ± 0.185%
- % methemoglobin formed, CYP 2C19 (CYP 2C19): 1.733 ± 0.327%
- % methemoglobin formed, CYP 2E1 (CYP 2E1): 8.703 ± 0.956%
- % methemoglobin formed, CYP 2A6 (CYP 2A6): 2.775 ± 0.175%
- % methemoglobin formed, Supersomes None (human erythrocytes): 2.138 ± 0.624%
- % methemoglobin formation, Control (human erythrocytes): 2.138 ± 0.624%
- % methemoglobin formed, CYP 2D6 (CYP 2D6): 17.200 ± 1.088%
- % methemoglobin formed, CYP 2C8 (CYP 2C8): 1.893 ± 0.275%
- formation of methemoglobenemic metabolites, Azithromycin (Mouse Liver Microsomes): 10.850 ± 2.134
- formation of methemoglobenemic metabolites, Erythromycin (Mouse Liver Microsomes): 9.375 ± 0.686
- formation of methemoglobenemic metabolites, Microsomes (Mouse Liver Microsomes): 17.790 ± 1.460
- % methemoglobin formation, Mouse Liver Microsomes (Mouse Liver Microsomes): 17.790 ± 1.460%
- % methemoglobin formed, Cimetidine (CYP 3A4; 3A4 Baculosomes, 8-aminoquinoline 100 μM with Cimetidine 100 μM): 11.905 ± 1.420%
- % methemoglobin formed, Erythromycin (CYP 3A4; 3A4 Baculosomes, 8-aminoquinoline 100 μM with Erythromycin 100 μM): 15.288 ± 2.359%
- % methemoglobin formed, Ketoconazole (CYP 3A4; 3A4 Baculosomes, 8-aminoquinoline 100 μM with Ketoconazole 100 μM): 19.010 ± 0.870%
- % methemoglobin formed, Troleandomycin (CYP 3A4; 3A4 Baculosomes, 8-aminoquinoline 100 μM with Troleandomycin 100 μM): 16.743 ± 1.401%
- % methemoglobin formed, inhibitor None (CYP 3A4; 3A4 Baculosomes, 8-aminoquinoline 100 μM, no inhibitor): 20.925 ± 0.502%
- % methemoglobin formed, CYP 3A4 (CYP 3A4; Baculosomes, mean ± S.D. of four): 15.320 ± 0.504%
Compound: COc1cc(N[C@@H](C)CCCN)c2nccc(C)c2c1Oc1ccc(Cl)c(Cl)c1 [NPC1161A]
- methemoglobin toxicity generated by CYP 3A4, comparison among the three 8-aminoquinolines (CYP 3A4; FIG. 5): almost similar methemoglobin toxicity
